Source: the supplement of paper PMC6045584
± gives the standard deviation of the averaged measurements.

Key:
[1] = compound: Cc1nc(Nc2ncc(C(=O)Nc3c(C)cccc3Cl)s2)cc(N2CCN(CCO)CC2)n1 [DASATINIB]; experiment: surviving fraction relative to DMSO-only wells; higher = less growth inhibition; details: exposure time: 5 days
In short: (§1)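 Log-phase tumour cell lines, 250–500 cells per well in 384-well plates, received inhibitors at 0.5, 1, 5, 10, 50, 100, 500 and 1000 nM continuously for five days, starting 24 hours after seeding. Viability was quantified with CellTiter-Glo luminescence and normalised to the median of DMSO-only wells to give surviving fraction. Three screens were run per line, and a line stayed in only with replicate Pearson r >0.7 and median Z' >0.3.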

[2] = compound: T1, CN1CCN(c2nc(C3=C(c4c[nH]c5ccccc45)C(=O)NC3=O)c3ccccc3n2)CC1 [SOTRASTAURIN/AEB071]; experiment: as above; details: exposure time: 5 days
In short: as §1

[3] = compound: T1, SOTRASTAURIN/AEB071; experiment: area under dose-response curve of surviving fraction (unscaled, Aref=0) (surviving fraction x log10(nM)); higher = more resistant; details: exposure time: 5 days; dose range 0.5-1000 nM
In short: (§2)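 Each tumour cell line was screened three times in 384-well plates, receiving eight inhibitor concentrations from 0.5 to 1000 nM for five days. CellTiter-Glo luminescence gave viability, normalised to DMSO-only wells. Using the drc R package, surviving fractions were fitted with 3-parameter logistic dose-response curves, and the unscaled activity area over log10 dose (Aref = 0) was taken as the area under the curve.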

[4] = compound: CNCc1ccc(-c2[nH]c3cc(F)cc4c3c2CCNC4=O)cc1; experiment: as above; details: exposure time: 5 days; dose range 0.5-1000 nM
In short: as §2

[5] = compound: C[C@]12CC[C@H](O)CC1=CC[C@@H]1[C@@H]2CC[C@]2(C)C(c3cccnc3)=CC[C@@H]12 [ABIRATERONE]; experiment: as above; details: exposure time: 5 days; dose range 0.5-1000 nM
In short: as §2

[6] = compound: CCn1c(C(=O)N(C2CC2)C2CC2)cc2c3c(ncn3C)c(Nc3cc(C)n(C)n3)nc21; experiment: as above; details: exposure time: 5 days; dose range 0.5-1000 nM
In short: as §2

Row | Test System | surviving fraction ([1]; 0.5 nM) | surviving fraction ([1]; 1 nM) | surviving fraction ([1]; 5 nM) | surviving fraction ([1]; 10 nM) | surviving fraction ([1]; 50 nM) | surviving fraction ([1]; 100 nM) | surviving fraction ([1]; 500 nM) | surviving fraction ([1]; 1000 nM) | surviving fraction ([2]; 0.5 nM) | surviving fraction ([2]; 1 nM) | surviving fraction ([2]; 5 nM) | surviving fraction ([2]; 10 nM) | surviving fraction ([2]; 50 nM) | surviving fraction ([2]; 100 nM) | surviving fraction ([2]; 500 nM) | surviving fraction ([2]; 1000 nM) | area under dose-response curve [3] | area under dose-response curve [4] | area under dose-response curve [5] | area under dose-response curve [6]
1 | HUO3N1 BONE | 0.8227 ± 0.0049 | 0.747 ± 0.029 | 0.568 ± 0.083 | 0.457 ± 0.032 | 0.331 ± 0.0068 | 0.2553 ± 0.0021 | 0.232 ± 0.013 | 0.215 ± 0.0027 | 1 ± 0.051 | 1.04 ± 0.075 | 1.08 ± 0.025 | 1.08 ± 0.054 | 1.001 ± 0.01 | 1.02 ± 0.025 | 0.897 ± 0.024 | 0.883 ± 0.017 | 3.24 | 3.19 | 3.47 | –
2 | LNCAP PROSTATE | 1.14 ± 0.05 | 1.1 ± 0.082 | 1.03 ± 0.075 | 0.941 ± 0.12 | 0.678 ± 0.032 | 0.504 ± 0.053 | 0.572 ± 0.012 | 0.589 ± 0.076 | 1.12 ± 0.11 | 1.05 ± 0.11 | 1.06 ± 0.052 | 0.998 ± 0.087 | 1.22 ± 0.069 | 1.16 ± 0.1 | 1.23 ± 0.025 | 1.18 ± 0.039 | 3.71 | – | 2.98 | 2.93
3 | MDAMB361 BREAST | 0.678 ± 0.12 | 0.733 ± 0.081 | 0.668 ± 0.087 | 0.711 ± 0.16 | 0.799 ± 0.058 | 0.781 ± 0.039 | 0.75 ± 0.077 | 0.821 ± 0.13 | 0.708 ± 0.053 | 0.758 ± 0.065 | 0.76 ± 0.12 | 0.776 ± 0.026 | 0.577 ± 0.099 | 0.561 ± 0.073 | 0.626 ± 0.099 | 0.591 ± 0.066 | 2.21 | 2.1 | – | 2.83
